Experimental data taken from patent US12103919B2, “3-(5-oxy)-1-oxoisoindolin-2-yl)piperidine-2,6-dione derivatives and uses thereof” (NOVARTIS AG, priority 2021, dated 2024).

Assays:
HbF [1] = conditions: human primary erythroid cells; cited from earlier work
HbF [2] = conditions: cited from earlier work
HBG1/2 = assay: Analysis of HbF gene expression by RNA-seq after CRISPR/Cas9 knockout of WIZ in mPB CD34+ cells; assay type: cell-based, human; conditions: WIZ KO vs scrambled gRNA control, 7 days erythroid differentiation, FIG. 1A
Procedure: Mobilized peripheral blood (mPB) CD34+ cells (AllCells, LLC) were maintained in StemSpan™ serum-free expansion media (SFEM) ([…] Technologies Inc.) supplemented with 50 ng/mL each of rhTPO, rhlL-6, rhFLT3L, rhSCF for 2-3 days prior to shRNA transduction or targeted ribonucleoprotein (RNP) electroporation targeting WIZ. All cytokines were obtained from Peprotech®, Inc. Cell cultures were maintained at 37° C. and 5% CO2 in a humidified tissue culture incubator.
Alt-R CRISPR-Cas9 crRNA and tracrRNA (5′-[…]-3′; SEQ ID NO: 7) were purchased from Integrated DNA Technologies, Inc. Equimolar tracrRNA was annealed with WIZ targeting crRNA (Table 3) in Tris buffer (10 mM, pH 7.5) by heating at 95° C. for 5 minutes using a polymerase chain reaction (PCR) machine (Bio-Rad) followed by cooling to room temperature on the benchtop. Subsequently, a ribonucleoprotein (RNP) complex was generated by mixing annealed tracrRNA:crRNA with 6 ug of Cas9 at 37° C. for 5 minutes in 1× buffer containing HEPES (100 mM), KCl (50 mM), MgCl2 (2.5 mM), glycerol (0.03%), DTT (1 mM) and Tris pH 7.5 (2 mM). […]
Two independent, targeted CRISPR/Cas9 knockout (KO) of WIZ were done using WIZ_6 and WIZ_18 gRNAs or a non-targeting scrambled gRNA negative control in mPB CD34+ HSCs. […] The quality of isolated RNA was determined before sequencing using Agilent RNA 6000 Pico Kit (Agilent, catalogue #5067-1513). […]

Row | Compound | HbF induction ex vivo (HbF [1]) | HbF induction in vivo (HbF [2]) | HBG1/2 expression upon erythroid differentiation (HBG1/2)
1 | Nc1cccc2c1CN(C1CCC(=O)NC1=O)C2=O (stereo not drawn) [lenalidomide] | induce HbF ex vivo | induce HbF | –
2 | Nc1cccc2c1C(=O)N(C1CCC(=O)NC1=O)C2=O (stereo not drawn) [pomalidomide] | induce HbF ex vivo | induce HbF | –
3 | WIZ_6: WIZ targeting crRNA/gRNA, AACATCTTTCGGGCCGTAGG, SEQ ID NO 9 (listed as DNA, chemistry not given here) | – | – | upregulation of fetal hemoglobin genes (HBG1/2)
4 | WIZ_18: WIZ targeting crRNA/gRNA, AGTGGGTGCGGCACTTACAG, SEQ ID NO 14 (listed as DNA, chemistry not given here) | – | – | upregulation of fetal hemoglobin genes (HBG1/2)
